pIC50: −log10 of the molar value. Active and inactive are the calls of the source. No cut-off for these calls is given here.
Columns and labels:
Proteinase K = Proteinase K (Engyodontium album, UniProt P06873); assay: Stability assessed as Tritirachium album proteinase K-mediated compound degradation by measuring half life at 50 uM by HPLC method; format: ADME; conditions: parengyodontium album
Trypanothione reductase [1] = target: T1, Trypanothione reductase (Leishmania infantum, UniProt A4HSF7); assay: Inhibition of dimerization of HIS/FLAG tagged Leishmania infantum trypanothione reductase incubated for 16 hrs in presence of dimerization buffer by ELISA
T1 sequence (A4HSF7 whole entry): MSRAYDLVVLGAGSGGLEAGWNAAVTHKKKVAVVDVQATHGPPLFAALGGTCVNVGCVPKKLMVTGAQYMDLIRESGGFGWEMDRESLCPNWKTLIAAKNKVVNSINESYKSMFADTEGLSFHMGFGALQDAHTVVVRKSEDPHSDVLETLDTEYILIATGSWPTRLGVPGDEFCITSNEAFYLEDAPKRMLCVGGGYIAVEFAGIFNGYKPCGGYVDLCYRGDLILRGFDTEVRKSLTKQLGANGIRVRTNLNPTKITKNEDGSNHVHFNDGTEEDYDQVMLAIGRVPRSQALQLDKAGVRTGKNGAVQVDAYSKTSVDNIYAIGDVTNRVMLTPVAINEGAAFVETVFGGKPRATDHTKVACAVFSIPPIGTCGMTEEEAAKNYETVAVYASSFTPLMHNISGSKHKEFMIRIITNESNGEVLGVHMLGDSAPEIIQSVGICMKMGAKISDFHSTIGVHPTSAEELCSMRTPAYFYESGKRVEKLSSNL

Trypanothione reductase [2] = target: T1, Trypanothione reductase; assay: Inhibition of oxidoreductase activity of recombinant Leishmania infantum trypanothione reductase pre-incubated for 10 mins before T[S]2 and NADPH addition
Leishmania infantum [3] = assay: Leishmanicidal activity against Leishmania infantum MCAN/ES/89/IPZ229/1/89 promastigotes at 25 uM after 24 hrs by propidium iodide staining based flow cytometry; format: functional, organism-based
Leishmania infantum [4] = assay: Leishmanicidal activity against Leishmania infantum amastigotes at 25 uM after 24 hrs by propidium iodide staining based flow cytometry; format: functional, organism-based

Proteinase K, sequence (P06873 whole entry): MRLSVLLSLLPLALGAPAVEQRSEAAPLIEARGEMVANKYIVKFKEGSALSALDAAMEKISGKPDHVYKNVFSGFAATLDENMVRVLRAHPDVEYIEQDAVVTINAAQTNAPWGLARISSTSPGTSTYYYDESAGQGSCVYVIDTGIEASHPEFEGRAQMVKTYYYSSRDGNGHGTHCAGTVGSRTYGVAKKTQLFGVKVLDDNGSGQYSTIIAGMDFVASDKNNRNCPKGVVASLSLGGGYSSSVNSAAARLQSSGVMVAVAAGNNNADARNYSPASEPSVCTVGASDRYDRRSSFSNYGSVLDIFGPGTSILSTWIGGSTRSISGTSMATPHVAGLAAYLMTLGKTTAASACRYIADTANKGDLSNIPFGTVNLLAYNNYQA

SMILES | half-life at 50 µM (Proteinase K) | pIC50 (Trypanothione reductase [1]) | pIC50 (Trypanothione reductase [2]) | Activity (Leishmania infantum [3]) | Activity (Leishmania infantum [4])
CCCC[C@@H](CC(=O)N[C@@H](CCCCN)C(=O)N[C@@H](CCCC)C(N)=O)NC(=O)[C@H](CO)NC(=O)[C@@H](NC(=O)CNC(=O)C[C@H](NC(=O)[C@H](CO)NC(=O)[C@H](CCC(N)=O)NC(=O)C[C@H](NC(=O)[C@@H](NC(=O)[C@H](CCCCN)NC(=O)[C@@H]1CCCN1C(C)=O)[C@@H](C)CC)[C@@H](C)CC)C(C)C)[C@@H](C)CC | 3.58 h | 4.99 | 5.51 | – | –
CCCC[C@@H](CC(=O)N[C@@H](CCCCN)C(=O)N[C@@H](CCCC)C(N)=O)NC(=O)[C@@H](CO)NC(=O)[C@@H](NC(=O)C[C@H](C)NC(=O)[C@@H](NC(=O)[C@@H](CO)NC(=O)[C@H](CCC(N)=O)NC(=O)C[C@H](NC(=O)[C@@H](NC(=O)[C@H](CCCCN)NC(=O)C[C@@H]1CCCN1C(C)=O)[C@@H](C)CC)[C@@H](C)CC)C(C)C)[C@@H](C)CC | – | – | – | inactive | inactive
CCCC[C@H](NC(=O)[C@H](CO)NC(=O)[C@@H](NC(=O)C[C@H](C)NC(=O)[C@@H](NC(=O)[C@H](CO)NC(=O)[C@H](CCC(N)=O)NC(=O)C[C@@H](NC(=O)[C@@H](NC(=O)[C@H](CCCCN)NC(=O)[C@@H]1CCCN1C(C)=O)[C@@H](C)CC)[C@@H](C)CC)C(C)C)[C@@H](C)CC)C(N)=O | – | 4.33 | 4.55 | inactive | inactive
CCCC[C@H](NC(=O)[C@H](CCCCN)NC(=O)[C@H](CCCC)NC(=O)[C@@H](CO)NC(=O)[C@@H](NC(=O)CNC(=O)[C@@H](NC(=O)[C@@H](CO)NC(=O)[C@H](CCC(N)=O)NC(=O)[C@@H](NC(=O)[C@@H](NC(=O)[C@H](CCCCN)NC(=O)[C@@H]1CCCN1C(C)=O)[C@@H](C)CC)[C@@H](C)CC)C(C)C)[C@@H](C)CC)C(N)=O | – | – | – | inactive | inactive
CCCC[C@@H](CC(=O)N[C@@H](CCCCN)C(=O)N[C@@H](CCCC)C(N)=O)NC(=O)[C@H](CO)NC(=O)[C@@H](NC(=O)C[C@H](C)NC(=O)[C@@H](NC(=O)[C@H](CO)NC(=O)[C@H](CCC(N)=O)NC(=O)C[C@H](NC(=O)[C@@H](NC(=O)[C@H](CCCCN)NC(=O)C[C@@H]1CCCN1C(C)=O)[C@@H](C)CC)[C@@H](C)CC)C(C)C)[C@@H](C)CC | 0.383 h | 4.86 | 5.57 | – | –
CC[C@H](C)[C@H](NC(=O)CNC(=O)[C@@H](NC(=O)[C@@H](CO)NC(=O)[C@H](CCC(N)=O)NC(=O)[C@@H](NC(=O)[C@@H](NC(=O)[C@H](CCCCN)NC(=O)[C@@H]1CCCN1C(C)=O)[C@@H](C)CC)[C@@H](C)CC)C(C)C)C(N)=O | – | – | – | inactive | inactive
CCCC[C@H](NC(=O)[C@H](CCCCN)NC(=O)[C@H](CCCC)NC(=O)[C@H](CO)NC(=O)[C@@H](NC(=O)CNC(=O)C[C@H](NC(=O)[C@H](CO)NC(=O)[C@H](CCC(N)=O)NC(=O)[C@@H](NC(=O)C[C@H](NC(=O)[C@H](CCCCN)NC(=O)[C@@H]1CCCN1C(C)=O)[C@@H](C)CC)[C@@H](C)CC)C(C)C)[C@@H](C)CC)C(N)=O | – | 4.86 | 5.06 | inactive | inactive
CCCC[C@H](NC(=O)C[C@H](CCCCN)NC(=O)[C@H](CCCC)NC(=O)C[C@H](CO)NC(=O)C[C@@H](NC(=O)CNC(=O)[C@@H](NC(=O)C[C@H](CO)NC(=O)C[C@H](CCC(N)=O)NC(=O)[C@@H](NC(=O)[C@@H](NC(=O)C[C@H](CCCCN)NC(=O)C[C@@H]1CCCN1C(C)=O)[C@@H](C)CC)[C@@H](C)CC)C(C)C)[C@@H](C)CC)C(N)=O | 5.28 h | 4.81 | 5.03 | inactive | inactive
CCCC[C@@H](CC(=O)N[C@@H](CCCCN)C(=O)N[C@@H](CCCC)C(N)=O)NC(=O)[C@@H](CO)NC(=O)[C@@H](NC(=O)CNC(=O)C[C@H](NC(=O)[C@H](CO)NC(=O)[C@H](CCC(N)=O)NC(=O)C[C@H](NC(=O)[C@@H](NC(=O)[C@H](CCCCN)NC(=O)[C@@H]1CCCN1C(C)=O)[C@@H](C)CC)[C@@H](C)CC)C(C)C)[C@@H](C)CC | – | – | – | inactive | inactive
CCCC[C@H](NC(=O)[C@@H](CO)NC(=O)[C@@H](NC(=O)CNC(=O)[C@@H](NC(=O)[C@@H](CO)NC(=O)[C@H](CCC(N)=O)NC(=O)[C@@H](NC(=O)[C@@H](NC(=O)[C@H](CCCCN)NC(=O)[C@@H]1CCCN1C(C)=O)[C@@H](C)CC)[C@@H](C)CC)C(C)C)[C@@H](C)CC)C(N)=O | – | – | – | inactive | inactive
CC[C@H](C)[C@H](NC(=O)CNC(=O)[C@@H](NC(=O)C[C@H](CO)NC(=O)[C@H](CCC(N)=O)NC(=O)[C@@H](NC(=O)C[C@@H](NC(=O)[C@H](CCCCN)NC(=O)[C@@H]1CCCN1C(C)=O)[C@@H](C)CC)[C@@H](C)CC)C(C)C)C(N)=O | 3.97 h | 4.65 | < 4.12 | inactive | inactive
CCCC[C@@H](CC(N)=O)NC(=O)[C@H](CCCCN)NC(=O)[C@H](CCCC)NC(=O)C[C@H](CO)NC(=O)C[C@H](NC(=O)CNC(=O)[C@@H](NC(=O)C[C@H](CO)NC(=O)[C@H](CCC(N)=O)NC(=O)[C@@H](NC(=O)[C@@H](NC(=O)C[C@H](CCCCN)NC(=O)C[C@@H]1CCCN1C(C)=O)[C@@H](C)CC)[C@@H](C)CC)C(C)C)[C@@H](C)CC | 2.18 h | 4.74 | 5.68 | inactive | inactive
CC[C@H](C)[C@H](CC(=O)N[C@H](C(=O)N[C@@H](CCC(N)=O)C(=O)N[C@@H](CO)C(=O)N[C@@H](CC(=O)NCC(=O)N[C@H](C(N)=O)[C@@H](C)CC)C(C)C)[C@@H](C)CC)NC(=O)[C@H](CCCCN)NC(=O)[C@@H]1CCCN1C(C)=O | – | 4.28 | < 4.12 | inactive | inactive
CCCC[C@@H](CC(N)=O)NC(=O)[C@H](CCCCN)NC(=O)[C@H](CCCC)NC(=O)C[C@H](CO)NC(=O)[C@@H](NC(=O)CNC(=O)[C@@H](NC(=O)C[C@H](CO)NC(=O)[C@H](CCC(N)=O)NC(=O)[C@@H](NC(=O)C[C@H](NC(=O)[C@H](CCCCN)NC(=O)C[C@@H]1CCCN1C(C)=O)[C@@H](C)CC)[C@@H](C)CC)C(C)C)[C@@H](C)CC | 8.62 h | 4.66 | 5.46 | inactive | inactive
CCCC[C@@H](CC(=O)N[C@@H](CCCCN)C(=O)N[C@@H](CC(N)=O)C(N)=O)NC(=O)[C@H](CO)NC(=O)[C@@H](NC(=O)CNC(=O)C[C@@H](NC(=O)[C@H](CO)NC(=O)[C@H](CCC(N)=O)NC(=O)C(NC(=O)C[C@@H](NC(=O)[C@H](CCCCN)NC(=O)[C@@H]1CCCN1C(C)=O)[C@@H](C)CC)[C@@H](C)CC)C(C)C)[C@@H](C)CC (single isomer, unassigned) | < 0.25 h | 5.01 | 4.74 | inactive | inactive
CC[C@H](C)[C@H](NC(=O)C[C@H](C)NC(=O)[C@@H](NC(=O)[C@H](CO)NC(=O)[C@H](CCC(N)=O)NC(=O)C[C@@H](NC(=O)[C@@H](NC(=O)[C@H](CCCCN)NC(=O)C[C@@H]1CCCN1C(C)=O)[C@@H](C)CC)[C@@H](C)CC)C(C)C)C(=O)O | – | 4.30 | 4.40 | inactive | inactive
CCCC[C@H](NC(=O)C[C@H](CCCCN)NC(=O)[C@H](CCCC)NC(=O)[C@H](CO)NC(=O)[C@@H](NC(=O)C[C@H](C)NC(=O)[C@@H](NC(=O)[C@H](CO)NC(=O)[C@H](CCC(N)=O)NC(=O)C[C@@H](NC(=O)[C@@H](NC(=O)[C@H](CCCCN)NC(=O)[C@@H]1CCCN1C(C)=O)[C@@H](C)CC)[C@@H](C)CC)C(C)C)[C@@H](C)CC)C(N)=O | – | 4.86 | 5.27 | inactive | inactive
CCCC[C@H](NC(=O)[C@H](CO)NC(=O)[C@@H](NC(=O)CNC(=O)[C@@H](NC(=O)[C@H](CO)NC(=O)[C@H](CCC(N)=O)NC(=O)[C@@H](NC(=O)[C@@H](NC(=O)[C@H](CCCCN)NC(=O)[C@@H]1CCCN1C(C)=O)[C@@H](C)CC)[C@@H](C)CC)C(C)C)[C@@H](C)CC)C(N)=O | – | 5.38 | 6.09 | – | –
CC[C@H](C)[C@H](NC(=O)CNC(=O)[C@@H](NC(=O)[C@H](CO)NC(=O)[C@H](CCC(N)=O)NC(=O)[C@@H](NC(=O)[C@@H](NC(=O)[C@H](CCCCN)NC(=O)[C@@H]1CCCN1C(C)=O)[C@@H](C)CC)[C@@H](C)CC)C(C)C)C(N)=O | – | 4.80 | 5.44 | – | –
CCCC[C@H](NC(=O)[C@H](CCCCN)NC(=O)[C@H](CCCC)NC(=O)[C@H](CO)NC(=O)[C@@H](NC(=O)CNC(=O)[C@@H](NC(=O)[C@H](CO)NC(=O)[C@H](CCC(N)=O)NC(=O)[C@@H](NC(=O)[C@@H](NC(=O)[C@H](CCCCN)NC(=O)[C@@H]1CCCN1C(C)=O)[C@@H](C)CC)[C@@H](C)CC)C(C)C)[C@@H](C)CC)C(N)=O | 0.383 h | 4.99 | 5.92 | – | –
CC[C@H](C)[C@H](CC(=O)N[C@@H](CCC(N)=O)C(=O)N[C@@H](CO)C(=O)N[C@@H](CC(=O)NCC(=O)N[C@H](C(N)=O)[C@@H](C)CC)C(C)C)NC(=O)[C@@H](NC(=O)[C@H](CCCCN)NC(=O)[C@@H]1CCCN1C(C)=O)[C@@H](C)CC | – | 4.38 | < 4.12 | inactive | inactive

From ChEMBL document CHEMBL4130478, “Improved proteolytic stability and potent activity against Leishmania infantum trypanothione reductase of α/β-peptide foldamers conjugated to cell-penetrating peptides” (Eur J Med Chem, 2017)
